{"source": "patent US10646567B2", "about": "“Methods of treating cancer using PD-1 axis binding antagonists and MEK inhibitors” (Genentech, Inc., priority 2011, dated 2020)", "key": {"[1]": {"tested_on": "human monocyte-derived dendritic cells", "assay": "Maturation and activation of monocyte-derived dendritic cells with anti-CD40 (FACS)", "format": "cell-based", "details": "for frequency of DCs expressing surface markers of DC maturation and activation: increasing concentrations 0.001 μM to 10 μM, anti-CD40 co-stimulation", "description": "Briefly, human monocytes were purified from whole blood using StemCell Technologies human monocyte RosetteSep as per manufacturer's instructions. Monocytes were seeded in T175 flasks at approximately 0.5-1.0×10^6 per ml in 50 ng/ml human GM-CSF and 100 ng/ml human IL-4 for 7 days total, with half-media exchanges every 2 days. […] MEK inhibitors and BRAF inhibitor were titrated 10-fold from 10 μM to 0.001 μM such that the final culture concentration was 0.5% DMSO in a total volume of 200 μl per well. Forty-eight hours later, cells were harvested and transferred to a 96-well V-bottom plate. […] HLA-DR,-DP,-DQ-FITC, HLA-ABC-PE, CD83-APC, CD14-FITC, CD80-PE, and CD86-APC. Propidium iodide was included to exclude dead cells. Samples were run on a BD FACSCaliber flow cytometer and data was analyzed using FlowJo software (Tree Star, Inc.)."}, "[2]": {"tested_on": "human peripheral blood mononuclear cells", "assay": "Surface MHC-I expression on human PBMCs (FACS)", "format": "cell-based", "details": "1 μM or 3 μM, 24 hours; CD4+ T cells, CD8+ T cells, B cells, monocytes; compared to vehicle", "description": "To determine if enhanced cell surface expression of MHC-I is specific to tumor cells, the effect of MEKi treatment on MHC-I expression on human peripheral blood mononuclear cells (PMBCs) was assayed. Briefly, PMBCS were isolated from whole blood by first diluting it with an equal volume of room temperature PBS and subsequent overlay onto Ficoll-filled Leucosep tubes (Greiner Bio-One). […] Gluta-MAX, sodium pyruvate, penicillin/streptomycin, and non-essential amino acids). Cells were plated in 6 well plates at 4×10^6 per well with a total of 4 ml per well. MEK inhibitor GDC-0973 was added at either 1 μM or 3 μM. Cells were harvested 24 hours later and distributed to a 96-well V-bottom plate for FACS staining. […] CD3-FITC, HLA-ABC-PE, CD4-APC, CD19-FITC, and CD14-FITC. Propidium iodide was included to exclude dead cells. Samples were run on a BD FACSCaliber flow cytometer and data was analyzed using FlowJo software (Tree Star, Inc.)."}, "[3]": {"tested_on": "mouse bone marrow dendritic cells", "assay": "Activation of mouse bone marrow derived dendritic cells (FACS)", "format": "cell-based", "details": "GDC-0973 1 μM, anti-PD-L1 10 μg/ml, 48 hours", "method": "Briefly, mouse bone marrow cells were isolated and seeded at 2×10^6 per 10 ml total volume per 10 cm non-tissue culture treated dishes with 40 ng/ml mouse GM-CSF for 7 days. Fresh media was half-exchanged every 2-3 days. Culture medium was RPMI-1640 with 10% fetal bovine serum, 20 μM HEPES, 55 μM 2-mercaptoethanol, 50 μg/ml gentamicin, and 1:100 dilutions of the following supplements from Gibco: Gluta-MAX, sodium pyruvate, penicillin/streptomycin, and non-essential amino acids. On day 7 all cells were harvested and washed, then seeded at 100,000 cells/well in a 96-well flat-bottom plate. MEK inhibitor GDC-0973 was added at a final concentration of 1 μM, anti-PDL1 human/mouse reverse chimera or anti-Ragweed mouse IgG2a isotype control (Genentech PUR 22251) were added at 10 μg/ml. […] After 48 hours of stimulation, cells were harvested and transferred to a 96-well V-bottom plate. Samples were first Fc receptor blocked (purified anti-CD16/CD32 from BD Biosciences, 5 μg/ml) and then stained with I-A/I-E-FITC, H-2Db/H-2Kb-biotin (followed by streptavidin-PE), CD11c-APC, CD86-FITC, and CD80-PE (all from BD Biosciences). Propidium iodide was included to exclude dead cells. Samples were run on a BD FACSCaliber flow cytometer and data was analyzed using FlowJo software (Tree Star, Inc.)."}, "[4]": {"tested_on": "human melanoma cell lines and human colorectal cell lines", "assay": "Surface MHC-I expression on human tumor cell lines (FACS)", "format": "cell-based", "details": "1 micromolar, 24 hours, compared to vehicle treated cells", "description": "To determine if treatment with MEK inhibitor (MEKi) enhanced immunogenicity of tumor cells, surface expression of MHC-I on tumor cell lines treated with MEK inhibitors GDC-0973 and G-38963 was assayed. Briefly, human melanoma cell lines (Malme-3M, A2058, […][…], SK23, SKMEL-28, 537 Mel, RPMI-795) and human colorectal cell lines (Colo 320 DM, Colo 205, WiDr, Colo 741, RKO, DLD-1, HM7, HCT-15) were treated with 1 micromolar […]-0973 or G-38963, BRAF inhibitor (BRAFi) GDC-0879, or DMSO vehicle for 24 hours. Following treatment, cells were stained for surface MHC Class I expression with an antibody against […] for subsequent FACS analysis. Data shown is for treatment […]-0973. Labeled isotype-matched antibodies were used to determine the level of non-specific staining."}, "[5]": {"tested_on": "CT26 murine colorectal cells", "assay": "CT26 colorectal tumor model, GDC-0973 dose study (first study)", "format": "in vivo, BALB/c mice", "description": "For the first study, female BALB/c mice were inoculated subcutaneously in the unilateral thoracic region with 100,000 CT26 murine colorectal cells in 100 μL of HBSS:matrigel. […] Groups of 10 mice were orally given the following in a volume of 200 μl daily for 21 days: Group 1 received MCT vehicle; Group 2 received 0.5 mg/kg GDC-0973; Group 3 received 1.0 mg/kg GDC-0973; Group 4 received 2.0 mg/kg GDC-0973; Group 5 received 3.0 mg/kg GDC-0973; Group 6 received 4.0 mg/kg GDC-0973; Group 7 received 5.0 mg/kg GDC-0973; Group 8 received 6.0 mg/kg GDC-0973; and Group 9 received 7.5 mg/kg GDC-0973. For both studies, mice were monitored for tumor growth and body weight changes two to three times per week for the duration of the study. […] Fred V. Fowler Company; Newton, Mass.) with length and width measurements perpendicular to one another, and tumor volume was calculated using the equation: Tumor Volume (mm^3)=(Length×Width^2)×0.5 For measurement of body weights, mice were weighed using an Adventura Pro AV812 scale (Ohaus Corporation; Pine Brook, N.J.). Percent body weight change was calculated using the equation: Body weight change (%)=[(WeightDay new−WeightDay 0)/WeightDay 0]×100 Data was analyzed using R, version 2.9.2 (R Development Core Team 2008; R Foundation for Statistical Computing; Vienna, Austria), and the mixed models were fit within R using the nlme package, version 3.1-96 (Pinheiro J et al., R package version 3. 2009, 1-96). Plotting was performed in Prism, version 5.0b for Mac (GraphPad Software, Inc.; La Jolla, Calif.). A mixed modeling approach was used to analyze the repeated measurement of tumor volumes from the same animals over time (Pinheiro J et al., Statistics and Computing, Springer. 2010). This approach addressed both repeated measurements and modest dropouts before study end for reasons classifiable statistically as missing at random (MAR). The fixed effect changes in log2 (volume) by time and dose are modeled as the sum of the main effects and interaction of a natural cubic regression spline basis in time with an auto-determined natural spline basis in dose. Intercepts and growth rates (slopes) were assumed to vary randomly by animal. […] Complete Response (CR) was defined as an individual animal whose tumor volume fell below the Limit of Detection (LOD), at any time during the study. Partial Response (PR) was defined as an individual animal whose tumor volume decreased by 50% of its initial tumor volume at any time during the study. Overall Response Rate (ORR) was defined as the sum of the complete and partial responses. Time To Progression 5X (TTP5X) was defined as the time in days for a group's fitted tumor volume (based upon the mixed modeling analysis described above) to exceed 5 times the starting volume, rounded to the nearest half day and reported as the TTP5X for that group. Linear mixed-effects analysis was also employed to analyze the repeated measurement of body weight changes from the same animals over time."}, "[6]": {"tested_on": "mouse tumor cell lines (MC38, B16.F10, CT26)", "assay": "Surface MHC-I expression on mouse tumor cell lines (FACS)", "format": "cell-based", "details": "1 micromolar, 24 hours, compared to vehicle treated cells", "description": "To determine if treatment with MEK inhibitor (MEKi) enhanced immunogenicity of mouse tumor cells similarly to human tumor cells, surface expression of MHC-I on mouse tumor cell lines treated with MEKi GDC-0973 was assayed. Briefly, mouse melanoma cell lines ([…]) and a mouse colorectal cell line (CT26) were treated with MEKi GDC-0973, G-38963 or vehicle. Briefly, cells were stimulated for 24 hours with 1 micromolar MEK inhibitor or DMSO vehicle control. Following treatment, cells were surfaced stained with an antibody against MHC-I (H-2D) and expression was assayed by subsequent FACS analysis. Labeled isotype-matched antibodies were used to determine the level of non-specific staining."}, "[7]": {"tested_on": "human CD8+ T cells", "assay": "CD8+ T cell proliferation (3H-thymidine)", "format": "cell-based", "details": "for T cell receptor induced proliferation, anti-CD3 stimulation: 0.01 μM MEKi; for T cell activation, co-stimulation with anti-CD3 and anti-CD28: 10 μM to 0.001 μM MEKi; for T cell proliferation, anti-CD3 stimulation: all MEKi concentrations tested (10 μM to 0.001 μM)", "description": "Recent studies have shown that MEK inhibitor treatment impairs T lymphocyte function (Boni et al., Cancer Res., 70(13), 2010). To confirm that MEK inhibitor treatment impaired CD8+ T cells, T cells were treated with MEKi in combination with T cell stimulation signals and assayed for T cell proliferation. Briefly, human CD8+ T cells were purified from whole blood using StemCell Technologies human CD8 RosetteSep as per manufacturer's instructions. Purified cells were plated at 200,000 per well in triplicate in 96-well U-bottom plates with 200,000 per well of either anti-CD3 or anti-CD3/anti-CD28 Dynabeads (Invitrogen). MEK inhibitors GDC-0973 and G-38963 were titrated 10-fold from 10 μM to 0.001 μM such that the final culture concentration was 0.5% DMSO in a total volume of 200 μl per well. […] Gluta-MAX, sodium pyruvate, penicillin/streptomycin, and non-essential amino acids. At 48 hours, wells were pulsed with 1 μCi/well of 3H-thymidine and cultured an additional 16 hours prior to freezing and harvest."}, "[8]": {"tested_on": "CT26 murine colorectal cells", "assay": "CT26 colorectal tumor model, anti-PD-L1 and GDC-0973 combination (second study)", "format": "in vivo, BALB/c mice", "details": "GDC-0973 7.5 mg/kg orally daily for 21 days", "method": "For the second study, female BALB/c mice were inoculated subcutaneously in the unilateral thoracic region with 100,000 CT26 murine colorectal cells in 100 μL of HBSS:matrigel. When mice achieved a mean tumor volume of approximately 200 mm3, they were randomly assigned to one of six different treatment groups on experimental day 0 and treatment was initiated on experimental day 1.\nFor both studies, mice were monitored for tumor growth and body weight changes two to three times per week for the duration of the study. For measurement of tumor growth, tumor volume was measured using UltraCal-IV calipers (Model 54-10-111; Fred V. Fowler Company; Newton, Mass.) with length and width measurements perpendicular to one another, and tumor volume was calculated using the equation: Tumor Volume (mm^3)=(Length×Width^2)×0.5\nData was analyzed using R, version 2.9.2 (R Development Core Team 2008; R Foundation for Statistical Computing; Vienna, Austria), and the mixed models were fit within R using the nlme package, version 3.1-96 (Pinheiro J et al., R package version 3. 2009, 1-96). […] A mixed modeling approach was used to analyze the repeated measurement of tumor volumes from the same animals over time (Pinheiro J et al., Statistics and Computing, Springer. 2010). This approach addressed both repeated measurements and modest dropouts before study end for reasons classifiable statistically as missing at random (MAR). The fixed effect changes in log2 (volume) by time and dose are modeled as the sum of the main effects and interaction of a natural cubic regression spline basis in time with an auto-determined natural spline basis in dose. Intercepts and growth rates (slopes) were assumed to vary randomly by animal. Tumor growth inhibition as a percentage of the control-treated group (% TGI) was calculated as the percentage of the area under the fitted curve (AUC) for the respective treatment group per day in relation to the control while the control treated mice were still on study, using the equation: % TGI=100×(1−AUCdose/AUCvehicles)"}, "[9]": {"tested_on": "Cloudman S91 melanoma tumors", "assay": "Melanoma tumor mouse model", "format": "in vivo, mice", "details": "anti-PD-L1 10 mg/kg ip 3x/week for 3 weeks; G-38963 75 mg/kg orally daily 21 days", "description": "(§1) To determine if MEKi enhanced the anti-tumor effect of anti-PD-L1 antibodies, mouse models for melanoma tumors were treated with the combination treatment. Briefly, mice were inoculated subcutaneously with tumor cells and allowed to grow tumors. When tumor bearing mice achieved a mean tumor volume of 100-200 mm3, mice were randomly assigned to 1 of 4 treatment groups. […] Mice were monitored for tumor growth and body weight changes."}, "[10]": {"tested_on": "colorectal tumors", "assay": "Colorectal tumor mouse model, G-38963 and anti-PD-L1", "format": "in vivo, mice", "details": "early (200 mm3) or late (450 mm3) intervention; anti-PD-L1 10 mg/kg ip 3x/week for 3 weeks; G-38963 75 mg/kg orally daily 21 days", "description": "as §1, with “colorectal” for “melanoma”, “200 mm3 (FIG. 7A) or 450 mm3 (FIG. 7B),” for “100-200 mm3,”"}, "[11]": {"tested_on": "serum IL-10 and KC in tumor bearing animals", "assay": "Serum cytokine levels in tumor bearing mice (Bio-Plex)", "format": "in vivo", "details": "melanoma and colorectal models, 7 days after treatment", "from_the_text": "Briefly, 7 days after treatment, mice were anaesthetized and bled retro-orbitally for serum."}}, "data": [{"smiles": "O=C(c1ccc(F)c(F)c1Nc1ccc(I)cc1F)N1CC(O)([C@@H]2CCCCN2)C1", "note": "[GDC-0973, Methanone, [3,4-difluoro-2-[(2-fluoro-4-iodophenyl)amino]phenyl][3-hydroxy-3-(2S)-2-piperidinyl-1-azetidinyl]-]", "values": [{"measurement": "frequency of cells expressing CD83, MHC-II and CD86", "setting": "[1]; 1 μM, anti-CD40, 48 hours, compared to vehicle", "value": "increased"}, {"measurement": "frequency of DCs expressing surface markers of DC maturation and activation", "setting": "[1]", "value": "enhanced the frequency of DCs expressing these surface markers"}, {"measurement": "cell surface expression of MHC-I", "setting": "[2]", "value": "not upregulated"}, {"measurement": "DC surface activation markers MHC-II, CD80, CD86", "setting": "[3]", "value": "enhanced"}, {"measurement": "DC surface expression of MHC-I", "setting": "[3]", "value": "enhanced"}, {"measurement": "cell surface expression of MHC-I", "setting": "[4]", "value": "upregulated"}, {"measurement": "% TGI", "setting": "[5]; 0.5 mg/kg orally daily for 21 days", "value": "−8", "unit": "%"}, {"measurement": "% TGI", "setting": "[5]; 1.0 mg/kg orally daily for 21 days", "value": "−16", "unit": "%"}, {"measurement": "% TGI", "setting": "[5]; 2.0 mg/kg orally daily for 21 days", "value": "−21", "unit": "%"}, {"measurement": "% TGI", "setting": "[5]; 3.0 mg/kg orally daily for 21 days", "value": "−4", "unit": "%"}, {"measurement": "% TGI", "setting": "[5]; 4.0 mg/kg orally daily for 21 days", "value": 27, "unit": "%"}, {"measurement": "% TGI", "setting": "[5]; 5.0 mg/kg orally daily for 21 days", "value": 55, "unit": "%"}, {"measurement": "% TGI", "setting": "[5]; 6.0 mg/kg orally daily for 21 days", "value": 72, "unit": "%"}, {"measurement": "% TGI", "setting": "[5]; 7.5 mg/kg orally daily for 21 days", "value": 87, "unit": "%"}, {"measurement": "tumor growth", "setting": "[5]; increasing doses, maximal inhibition at 7.5 mg/kg at 20 days post-treatment", "value": "suppressed tumor growth"}, {"measurement": "cell surface expression of MHC-I", "setting": "[6]", "value": "upregulated"}, {"measurement": "T cell receptor induced proliferation, anti-CD3 stimulation", "setting": "[7]", "value": "nearly complete inhibition"}, {"measurement": "T cell activation, co-stimulation with anti-CD3 and anti-CD28", "setting": "[7]", "value": "sufficient to overcome the inhibitory effect of MEKi"}, {"measurement": "T cell proliferation, anti-CD3 stimulation", "setting": "[7]", "value": "reduced the stimulatory effect of anti-CD3"}, {"measurement": "% CR", "setting": "[8]", "value": 0, "unit": "%"}, {"measurement": "% PR", "setting": "[8]", "value": 10, "unit": "%"}, {"measurement": "% TGI", "setting": "[8]", "value": 71, "unit": "%"}, {"measurement": "TTP5X", "setting": "[8]", "value": 21.5, "unit": "days"}]}, {"smiles": "O=C(NOCCO)c1oc2ccncc2c1Nc1ccc(I)cc1F", "note": "[Compound G-38963]", "values": [{"measurement": "tumor growth", "setting": "[9]", "value": "highly effective as a single agent therapy at preventing tumor growth"}, {"measurement": "frequency of DCs expressing surface markers of DC maturation and activation", "setting": "[1]", "value": "enhanced the frequency of DCs expressing these surface markers"}, {"measurement": "cell surface expression of MHC-I", "setting": "[4]", "value": "upregulated"}, {"measurement": "tumor growth", "setting": "[10]", "value": "highly effective as a single agent therapy at preventing tumor growth"}, {"measurement": "serum IL-10 level", "setting": "[11]", "value": "decreased"}, {"measurement": "cell surface expression of MHC-I", "setting": "[6]", "value": "upregulated"}, {"measurement": "T cell receptor induced proliferation, anti-CD3 stimulation", "setting": "[7]", "value": "nearly complete inhibition"}, {"measurement": "T cell activation, co-stimulation with anti-CD3 and anti-CD28", "setting": "[7]", "value": "sufficient to overcome the inhibitory effect of MEKi"}, {"measurement": "T cell proliferation, anti-CD3 stimulation", "setting": "[7]", "value": "reduced the stimulatory effect of anti-CD3"}]}]}
